In US10611750B2, “Tetrahydroquinoline compositions as bet bromodomain inhibitors” (FORMA Therapeutics, Inc., priority 2013, dated 2020):

Assays:
[1] = biological target: T1, BRD4 Bromodomain 1 (BRD4 BD1) (Homo sapiens, UniProt O60885); experiment: AlphaScreen binding assay, BRD4 BD1; conditions: His-tagged BRD4 BD1 50 nM, biotinylated H4 (1-21) K5/8/12/16 tetra-acetylated peptide 50 nM, compounds listed under IC50 range headings
T1 construct: 44-168 and BRD4 BD2
Method: The binding of Example compounds to BRD4 Bromodomain 1 and BRD4 Bromodomain 2 was assessed using 384-well AlphaScreen assay technology. His-epitope tagged BRD4 BD144-168 and BRD4 BD2333-460 were cloned, expressed, and purified to homogeneity. BRD4 BD1 and BRD4 BD2 binding and inhibition was assessed by monitoring the engagement of biotinylated Histone H4 (1-21) K5/8/12/16 tetra-acetylated peptide with the targets using the AlphaScreen technology (PerkinElmer). Specifically, in a 384-well black or white flat bottom plate, BRD4 BD1 (50 nM final) or BRD4 BD2 (100 nM final) was combined with peptide (50 nM final for BD1 or 100 nM final for BD2) in 50 mM HEPES (pH 7.3), 100 mM NaCl, 0.1% (w/v) BSA, and 0.01% (w/v) Triton X-100 either in the presence of DMSO (final 1.25% DMSO) or compound dilution series in DMSO. Alpha streptavidin donor beads and Nickel-chelate acceptor beads were added to a final concentration of 10 μg/ml each. After a minimum of 1 hour equilibration, plates were read on a BMG PHERAstar FS multi-label reader (BMG LabTech). The half maximal inhibitory concentration (IC50) values were calculated using IDBS Activity Base software with a four parameter logistic curve fit by the equation y=A+((B−A)/(1+((C/x)^D))), wherein A denotes the bottom plateau of the curve, B denotes the top plateau of the curve, C denotes the x value at the middle of the curve, D denotes the slope factor, x denotes the original known x values, and y denotes the original known y values. Data was fitted using the Levenburg Marquardt algorithm.

[2] = system: acute myelocytic leukemia (AML) cell line MV4-11; experiment: Oncology cell growth assay (3-day proliferation, CellTiter-Glo); assay type: cell-based; conditions: Homo sapiens, MV4-11, 72 h, MV4-11 cells, 3000 cells/well, compounds listed under IC50 range headings, read-out: MV411 IC50 (gIC50, inhibition of proliferation)
Method: The impact of Example compounds on cancer cell proliferation was determined using the acute myelocytic leukemia (AML) cell line MV4-11 (ATCC) in a 3-day proliferation assay. MV4-11 cells were maintained in RPMI 1640 media supplemented with 10% FBS at 37° C. and an atmosphere of 5% CO2. For compound testing, compound dilutions series were prepared in DMSO via a 3-fold serial dilution from 2 mM to 0.001 mM in 384-well white flat bottom plates. The final compound concentrations in the wells were 10, 3.3, 1.1, 0.37, 0.12, 0.041, 0.013 and 0.0045 μM. MV4-11 cells were plated at a density of 3000 cells/well in final volume of 50 μl culture media and incubated for 72 hours. […] Luminescent signal from the CellTiter-Glo assay was read on an EnVision multilabel plate reader (PerkinElmer). Values for the concentration that inhibited cell growth by 50% (gIC50) between the DMSO control and background control (no cells) were determined using IDBS Activity Base software with a four parameter logistic curve fit by the equation y=A+((B−A)/(1+((C/x)^D))), wherein A denotes the bottom plateau of the curve, B denotes the top plateau of the curve, C denotes the x value at the middle of the curve, D denotes the slope factor, x denotes the original known x values, and y denotes the original known y values. Data was fitted using the Levenburg Marquardt algorithm.

SMILES | IC50 [1] | IC50 [2]
COC(=O)N1c2ccc(-c3cnn(C4CC5CNCC5C4)c3)c(Oc3ccc(F)cc3)c2CC[C@@H]1C (stereo partly drawn) [I-186, (2S)-methyl 5-(4-fluorophenoxy)-2-methyl-6-(1-(octahydrocyclopenta[c]pyrrol-5-yl)-1H-pyrazol-4-yl)-3,4-dihydroquinoline-1(2H)-carboxylate] | 100 to 1000 nM | < 500 nM
C[C@H]1CCc2c(ccc(-c3c[nH]nn3)c2Oc2ccccc2)N1C(=O)C1CC1 [I-187, (S)-cyclopropyl(2-methyl-5-phenoxy-6-(1H-1,2,3-triazol-4-yl)-3,4-dihydroquinolin-1(2H)-yl)methanone] | 100 to 1000 nM | < 500 nM
COC(=O)N1c2ccc(-c3cnn(C4CNC4)c3)c(Oc3ccc(F)c(F)c3)c2CC[C@@H]1C [I-192, (S)-methyl 6-(1-(azetidin-3-yl)-1H-pyrazol-4-yl)-5-(3,4-difluorophenoxy)-2-methyl-3,4-dihydroquinoline-1(2H)-carboxylate] | 100 to 1000 nM | < 500 nM
COC(=O)N1c2ccc(-c3cnn(C4CNC4)c3)c(Oc3ccccc3)c2CC[C@@H]1C [I-193, (S)-methyl 6-(1-(azetidin-3-yl)-1H-pyrazol-4-yl)-2-methyl-5-phenoxy-3,4-dihydroquinoline-1(2H)-carboxylate] | 100 to 1000 nM | < 500 nM
COc1ccccc1Oc1c(-c2cnn(C3CCNCC3)c2)ccc2c1CC[C@H](C)N2C(=O)C1CC1 [I-194, (S)-cyclopropyl(5-(2-methoxyphenoxy)-2-methyl-6-(1-(piperidin-4-yl)-1H-pyrazol-4-yl)-3,4-dihydroquinolin-1(2H)-yl)methanone] | 100 to 1000 nM | < 500 nM
COc1cccc(Oc2c(-c3cnn(C4CCNCC4)c3)ccc3c2CC[C@H](C)N3C(=O)C2CC2)c1 [I-195, (S)-cyclopropyl(5-(3-methoxyphenoxy)-2-methyl-6-(1-(piperidin-4-yl)-1H-pyrazol-4-yl)-3,4-dihydroquinolin-1(2H)-yl)methanone] | 100 to 1000 nM | < 500 nM
COc1ccc(Oc2c(-c3cnn(C4CCNCC4)c3)ccc3c2CC[C@H](C)N3C(=O)C2CC2)cc1 [I-196, (S)-cyclopropyl(5-(4-methoxyphenoxy)-2-methyl-6-(1-(piperidin-4-yl)-1H-pyrazol-4-yl)-3,4-dihydroquinolin-1(2H)-yl)methanone] | 100 to 1000 nM | < 500 nM
COC(=O)N1c2ccc(-c3cnn(C4CCNCC4)c3)c(Oc3ccccc3OC)c2CC[C@@H]1C [I-197, (S)-methyl 5-(2-methoxyphenoxy)-2-methyl-6-(1-(piperidin-4-yl)-1H-pyrazol-4-yl)-3,4-dihydroquinoline-1(2H)-carboxylate] | 100 to 1000 nM | < 500 nM
COC(=O)N1c2ccc(-c3cnn(C4CCNCC4)c3)c(Oc3cccc(OC)c3)c2CC[C@@H]1C [I-198, (S)-methyl 5-(3-methoxyphenoxy)-2-methyl-6-(1-(piperidin-4-yl)-1H-pyrazol-4-yl)-3,4-dihydroquinoline-1(2H)-carboxylate] | 100 to 1000 nM | < 500 nM
COC(=O)N1c2ccc(-c3cnn(C4CCNCC4)c3)c(Oc3ccc(OC)cc3)c2CC[C@@H]1C [I-199, (S)-methyl 5-(4-methoxyphenoxy)-2-methyl-6-(1-(piperidin-4-yl)-1H-pyrazol-4-yl)-3,4-dihydroquinoline-1(2H)-carboxylate] | 100 to 1000 nM | < 500 nM
C[C@H]1CCc2c(ccc(-c3cnn(C4CCNCC4)c3)c2Oc2cccc(C#N)c2)N1C(=O)C1CC1 [I-202, (S)-3-(1-(cyclopropanecarbonyl)-2-methyl-6-(1-(piperidin-4-yl)-1H-pyrazol-4-yl)-1,2,3,4-tetrahydroquinolin-5-yloxy)benzonitrile] | 100 to 1000 nM | < 500 nM
CC(=O)N1c2ccc(-c3cnn(C4CCNCC4)c3)c(Oc3ccccn3)c2CC[C@@H]1C [I-203, (S)-1-(2-methyl-6-(1-(piperidin-4-yl)-1H-pyrazol-4-yl)-5-(pyridin-2-yloxy)-3,4-dihydroquinolin-1(2H)-yl)ethanone] | 100 to 1000 nM | < 500 nM
C[C@H]1CCc2c(Oc3ccccc3)c(-c3cnn(C4CCNCC4)c3)cc(F)c2N1C(=O)C1CC1 [I-204, (S)-cyclopropyl(8-fluoro-2-methyl-5-phenoxy-6-(1-(piperidin-4-yl)-1H-pyrazol-4-yl)-3,4-dihydroquinolin-1 (2H)-yl)methanone] | 100 to 1000 nM | < 500 nM
COC(=O)N1c2c(F)cc(-c3cnn(C4CCNCC4)c3)c(Oc3ccccc3)c2CC[C@@H]1C [I-205, (S)-methyl 8-fluoro-2-methyl-5-phenoxy-6-(1-(piperidin-4-yl)-1H-pyrazol-4-yl)-3,4-dihydroquinoline-1(2H)-carboxylate] | 100 to 1000 nM | < 500 nM
CC(=O)N1c2c(F)cc(-c3cnn(C4CCNCC4)c3)c(Oc3ccccc3)c2CC[C@@H]1C [I-206, (S)-1-(8-fluoro-2-methyl-5-phenoxy-6-(1-(piperidin-4-yl)-1H-pyrazol-4-yl)-3,4-dihydroquinolin-1 (2H)-yl)ethanone] | 100 to 1000 nM | < 500 nM
COc1cccc(Oc2c(-c3cnn(C4CCNCC4)c3)cc(F)c3c2CC[C@H](C)N3C(=O)C2CC2)c1 [I-207, (S)-cyclopropyl(8-fluoro-5-(3-methoxyphenoxy)-2-methyl-6-(1-(piperidin-4-yl)-1H-pyrazol-4-yl)-3,4-dihydroquinolin-1(2H)-yl)methanone] | 100 to 1000 nM | < 500 nM
C[C@H]1CCc2c(ccc(-c3cn(C)nn3)c2Oc2ccccc2)N1C(=O)C1CC1 [I-219, (S)-cyclopropyl(2-methyl-6-(1-methyl-1H-1,2,3-triazol-4-yl)-5-phenoxy-3,4-dihydroquinolin-1(2H)-yl)methanone] | 100 to 1000 nM | < 500 nM
Cc1nnc(-c2ccc3c(c2Oc2ccccc2)CC[C@H](C)N3C(=O)C2CC2)s1 [I-220, (S)-cyclopropyl(2-methyl-6-(5-methyl-1,3,4-thiadiazol-2-yl)-5-phenoxy-3,4-dihydroquinolin-1(2H)-yl)methanone] | 1000 to 10000 nM | < 500 nM
C[C@H]1CCc2c(ccc(-c3cn(C)cn3)c2Oc2ccccc2)N1C(=O)C1CC1 [I-221, (S)-cyclopropyl(2-methyl-6-(1-methyl-1H-imidazol-4-yl)-5-phenoxy-3,4-dihydroquinolin-1(2H)-yl)methanone] | 100 to 1000 nM | < 500 nM
COC(=O)N1c2ccc(-c3cnn(C4CCCS(=O)(=O)C4)c3)c(Oc3ccc(F)cc3)c2CC[C@@H]1C (stereo partly drawn) [I-222, Methyl (2S)-6-(1-(1,1-dioxidotetrahydro-2H-thiopyran-3-yl)-1H-pyrazol-4-yl)-5-(4-fluorophenoxy)-2-methyl-3,4-dihydroquinoline-1 (2H)-carboxylate] | 100 to 1000 nM | < 500 nM
COC(=O)N1c2ccc(-c3cnn(C4CS(=O)(=O)C4)c3)c(Oc3ccc(F)cc3)c2CC[C@@H]1C [I-223, methyl (S)-6-(1-(1,1-dioxidothietan-3-yl)-1H-pyrazol-4-yl)-5-(4-fluorophenoxy)-2-methyl-3,4-dihydroquinoline-1(2H)-carboxylate] | 100 to 1000 nM | < 500 nM
C[C@H]1CCc2c(ccc(-c3cnn(C4CS(=O)(=O)C4)c3)c2Oc2ccc(F)cc2)N1C(=O)C1CC1 [I-229, 3-[4-[(2S)-1-cyclopropanecarbonyl-5-(4-fluorophenoxy)-2-methyl-1,2,3,4-tetrahydroquinolin-6-yl]-1H-pyrazol-1-yl]-1λ^6-thietane-1,1-dione] | 100 to 1000 nM | < 500 nM
C[C@H]1CCc2c(ccc(-c3cnn(C4CS(=O)(=O)C4)c3)c2Oc2ccccc2)N1C(=O)C1CC1 [I-230, 3-[4-[(2S)-1-cyclopropanecarbonyl-2-methyl-5-phenoxy-1,2,3,4-tetrahydroquinolin-6-yl]-1H-pyrazol-1-yl]-1λ^6-thietane-1,1-dione] | 100 to 1000 nM | < 500 nM
